This is an account of results in patent publication US12570603B2, “FABP4/5 inhibitors, methods of use and methods of making” (Novius Therapeutics, LLC, priority 2021, dated 2026).

Where two headings read alike, the source gives them in different places.

One test relates to TNBC lines and MCF7. Nature of the test: Proliferation assay in multiple TNBC lines and MCF7, MB-231 shF5 as control. Format: cell-based. The procedure: (§1) 2000 cells were plated in each well of 96-well plate. The next day cells were treated with compounds and incubated in Incucyte for 4 days. Images taken every 4 hours for the duration of the time were analyzed to calculate percentage of confluency in response to the treatments. Growth inhibition was calculated as 1−(percentage of viable cells out of untreated cells).

The next test has as its system BT-549 cells. The test is described as follows: Proliferation assay, combination with chemotherapy. The following applies: B4 1 μM with doxorubicin 0 to 100 nM. Format: cell-based, human. The procedure: as §1
For the next test, the system named is MB-231 tumors. The test is described as follows: TNBC xenograft experiment. Conditions: NSG mice, B4 20 or 40 mg/kg IP 5 times a week, after 14 days. Format: in vivo. The procedure: Eight-week-old NSG […] females were injected subcutaneously into the right flank with 5×10^6 MB-231 cells 1:1 with matrigel. Treatments started the day after cells injections 5 days a week. Mice were treated with either vehicle (5% DMSO, 15%-HPCBD (PH 9.0) in water), 20 mg/kg, or 40 mg/kg B4 dissolved in vehicle. Tumor size was assessed twice per week using a digital caliper. Tumor volumes were determined by measuring the length (l) and the width (w) of the tumor and calculating the volume (V=lw^2/2). Mice were scarified 14 days after injection. Statistical significance between the control and treated mice in both experiments was evaluated using a Student's t test. Mouse experiments were conducted after approval by the institutional animal care and use committee at Case Western Reserve University.
TNBC xenograft model was used to test the efficacy of B4 in suppressing growth on tumors in vivo. 5×10^6 MB-231 cells were subcutaneously injected into the right flank of NSG mice. B4 (20, or 40 mg/kg) or a vehicle were IP injected 5 times a week and tumor growth was monitored.

The subject of test [1] is LX-2 hepatic stellate cells. Nature of the test: Lipid uptake assay, Oil Red O staining of lipid droplets. The class given is cell-based, human. The procedure: 1) LX-2: Human LX-2 hepatic stellate cells were treated with compound for 2 days in the presence or absence of 2% lipid mixture (Sigma, USA) in the growth media. Cells were stained with Oil Red O and lipid content was quantified using ImageJ.

For test [2], the system named is PPARδ targets PDPK1 and CD47 in TNBC cells MB-157. Nature of the test: Real-time PCR of PPARδ targets. The class given is cell-based, human. Conditions: MB-157, 1 μM, 6 hours. The procedure: Cells were treated with a compound for 6 h. then lysed and RNA was extracted using Trizol, according to the manufacturer's instructions. cDNA was generated using GeneAmp RNA PCR (Applied Biosystems). qPCR was carried out using TaqMan chemistry and Assays-on-Demand probes (Applied Biosystems). 18s (4352930) rRNA was used for normalization. Relative expression was calculated as 2^−ΔΔCT.
For orientation: Real-time PCR tracks product formation cycle by cycle.

The test system of test [3] is FABP4 together with PPARγ. Nature of the test: Transcriptional activation assay in cells overexpressing FABP4, with PPARγ activator rosiglitazone. The class given is cell-based. Conditions: FIG. 7. The procedure: COS-7 were cultured in 6-well plates and co-transfected with either a luciferase reporter driven by 3 copies of a PPRE and expression vector for either PPARδ, PPARα or PPARγ together with a vector harboring cDNA for β-galactosidase, serving as a transfection control. To test whether FABP4 or FABP5 mediate activation of their cognate receptors PPARγ and PPARδ, respectively, cells were also co-transfected with a plasmid harboring sequence of either FABP4 or FABP5. 18 h post-transfection, cells were placed in a serum-free medium and treated with agonist/compound. 18 h. later, cells were lysed, luciferase activity was assayed (Promega, WI, USA) and corrected for transfection efficiency by the activity of β-galactosidase.

The target in another test is T1, FABP4 (Homo sapiens, UniProt P15090).
T1 construct: made in house
The test is described as follows: FABP binding assay by fluorescence titration (ANS competition). The procedure: (§2) This example illustrates a binding assay study used to determine the binding affinity of the various inhibitor compounds disclosed herein with the various FABPs: FABP3, FABP4, FABP5 and FABP7.
(§3) Binding assays for FABP3, FABP4, FABP5 and FABP7 were carried out by fluorescence titrations. FABPs were bacterially expressed and purified and the equilibrium dissociation constants (Kd) that characterize their interactions with different compounds were measured by fluorescence competition assays. The method entails two steps as described in e.g., Lin, Q. et al., “Ligand selectivity of the peroxisome proliferator-activated receptor alpha,” Biochemistry 38, 185-190, doi:10.1021/bi9816094 bi9816094 [pii](1999). In the first step, Kd for the association of the protein with the fluorescent fatty acid probe ANS was measured. Protein ([…]) was titrated with ANS from a concentrated solution in DMSO. Ligand binding was monitored by following the increase in the fluorescence of the ligand upon binding to the protein, and Kd for the association of ANS with the each FABP was computed from titration curves as described in e.g., Norris, A. W. & Li, E., “Fluorometric titration of the CRABPs,” Methods Mol Biol 89, 123-139 (1998)). Kds for binding of non-fluorescent ligands were then measured by monitoring their ability to displace ANS in the binding pocket of the protein. Each FABP was pre-complexed with ANS at 1:1 molar ratio and titrated with the different compounds whose binding was reflected by a decrease in probe fluorescence. Kds were extracted from the EC50 of the competition curve and the measured Kd for ANS.
(§4) Binding assays for FABP3, FABP4, FABP5 and FABP7 were carried out by fluorescence titrations as described in Example 16.

The next test deals with T2, FABP5 (Homo sapiens, UniProt Q01469).
T2 construct: made in house
Described as above. The procedure:
as §2, §3, §4

T2 sequence (Q01469 whole entry, species assumed): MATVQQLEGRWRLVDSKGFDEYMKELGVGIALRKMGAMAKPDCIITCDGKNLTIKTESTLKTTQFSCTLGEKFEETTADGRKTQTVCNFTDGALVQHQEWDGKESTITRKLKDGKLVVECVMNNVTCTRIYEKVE
T1 sequence (P15090 whole entry, species assumed): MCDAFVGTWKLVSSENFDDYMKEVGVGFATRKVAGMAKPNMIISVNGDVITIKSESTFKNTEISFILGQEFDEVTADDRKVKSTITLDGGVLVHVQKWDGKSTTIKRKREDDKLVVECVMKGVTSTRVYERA

Consider `CC(C)Oc1cc(NC(=O)CSCC(=O)O)c(Cl)cc1Cl` [Compound B4, 2-((2-((2,4-dichloro-5-isopropoxyphenyl)amino)-2-oxoethyl)thio)acetic acid], for which the “growth inhibition of TNBC lines by FABP5 level” value in the test on TNBC lines and MCF7 is “inhibited growth of only TNBC lines expressing high FABP5 levels”. For the same molecule, in the test on BT-549 cells, the sensitization to chemotherapy result was “sensitized to chemotherapy”. Further, the “growth of 231 tumors” value in the test on MB-231 tumors is recorded as “almost completely abolished growth”. In addition, in test [1] (B4 alone, activated LX-2 cells), the “amount of lipid droplets (Oil Red O)” value is given as “increased the amount of LD in the cells”. Further, in test [1] (co-treatment with 2% lipid mix and B4), the lipid droplet size entry is reported as “increases the LD size even more”. Further, in test [2], the “levels of endogenous PPARδ targets PDPK1 and CD47” value is on record as “significantly lower”. Besides, the “inhibition of PPARγ activity in cells overexpressing FABP4” value in test [3] is on record as “inhibit activity of the nuclear receptors only in cells that express the binding proteins”. Besides, the Kd at FABP4 (FIG. 1A/1B, read-out: binding affinity towards FABP4 (Kd)) is below 1000 nM; on FABP4 (fluorescence competition with ANS, read-out: FABP4 binding) it was 66 nM; on FABP5 (FIG. 1A/1B, read-out: binding affinity towards FABP5 (Kd)), below 1000 nM; on FABP5 (fluorescence competition with ANS, read-out: FABP5 binding), 36 nM.
